Common to all, as to test: kinase binding constant, 11-point dose response (T7 phage, qPCR)
Settings in all cases: >30 = no inhibition at highest concentration tested
On the technique in general: In qPCR the cycle at which signal appears reflects the starting amount.

In one assay the target is T1, YSK4 (Homo sapiens, UniProt Q56UN5).
T1 sequence (Q56UN5 1-1328): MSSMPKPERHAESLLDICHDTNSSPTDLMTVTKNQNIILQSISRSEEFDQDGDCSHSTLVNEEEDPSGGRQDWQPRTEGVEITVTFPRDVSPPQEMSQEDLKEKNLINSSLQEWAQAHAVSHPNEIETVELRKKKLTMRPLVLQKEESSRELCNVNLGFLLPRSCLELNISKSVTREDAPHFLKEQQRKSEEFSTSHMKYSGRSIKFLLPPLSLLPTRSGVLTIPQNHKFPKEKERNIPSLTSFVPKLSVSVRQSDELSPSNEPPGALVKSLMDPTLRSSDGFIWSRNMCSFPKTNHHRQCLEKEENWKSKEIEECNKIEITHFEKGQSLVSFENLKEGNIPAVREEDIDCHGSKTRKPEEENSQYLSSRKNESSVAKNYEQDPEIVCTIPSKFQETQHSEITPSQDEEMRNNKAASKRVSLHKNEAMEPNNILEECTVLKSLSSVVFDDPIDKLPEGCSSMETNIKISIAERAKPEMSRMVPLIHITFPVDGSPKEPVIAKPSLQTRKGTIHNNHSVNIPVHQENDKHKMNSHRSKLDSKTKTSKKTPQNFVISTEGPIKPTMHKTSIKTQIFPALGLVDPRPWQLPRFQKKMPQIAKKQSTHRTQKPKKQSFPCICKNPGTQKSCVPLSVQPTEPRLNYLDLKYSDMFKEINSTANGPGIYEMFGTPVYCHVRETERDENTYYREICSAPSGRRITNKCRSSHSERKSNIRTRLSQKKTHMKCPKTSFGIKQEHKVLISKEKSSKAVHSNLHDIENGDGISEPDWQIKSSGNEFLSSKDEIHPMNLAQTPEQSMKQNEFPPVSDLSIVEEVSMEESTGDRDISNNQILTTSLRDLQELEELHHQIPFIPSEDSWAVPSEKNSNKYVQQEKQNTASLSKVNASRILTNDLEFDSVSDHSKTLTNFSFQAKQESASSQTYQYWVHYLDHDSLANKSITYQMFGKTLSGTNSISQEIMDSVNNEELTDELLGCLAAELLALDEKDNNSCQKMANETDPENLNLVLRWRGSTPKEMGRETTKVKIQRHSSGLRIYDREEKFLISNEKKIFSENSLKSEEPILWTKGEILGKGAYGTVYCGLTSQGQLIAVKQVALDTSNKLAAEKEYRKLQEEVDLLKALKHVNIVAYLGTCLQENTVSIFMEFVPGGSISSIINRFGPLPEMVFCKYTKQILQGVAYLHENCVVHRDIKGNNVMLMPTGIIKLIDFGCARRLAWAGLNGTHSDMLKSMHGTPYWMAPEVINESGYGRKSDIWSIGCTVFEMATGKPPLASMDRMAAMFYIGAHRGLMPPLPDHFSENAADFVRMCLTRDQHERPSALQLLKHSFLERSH

The next assay addresses PIK4CB (Homo sapiens, UniProt Q9UBF8).
Another assay deals with T2, IRAK3 (Homo sapiens, UniProt Q9Y616).
T2 sequence (Q9Y616 1-596): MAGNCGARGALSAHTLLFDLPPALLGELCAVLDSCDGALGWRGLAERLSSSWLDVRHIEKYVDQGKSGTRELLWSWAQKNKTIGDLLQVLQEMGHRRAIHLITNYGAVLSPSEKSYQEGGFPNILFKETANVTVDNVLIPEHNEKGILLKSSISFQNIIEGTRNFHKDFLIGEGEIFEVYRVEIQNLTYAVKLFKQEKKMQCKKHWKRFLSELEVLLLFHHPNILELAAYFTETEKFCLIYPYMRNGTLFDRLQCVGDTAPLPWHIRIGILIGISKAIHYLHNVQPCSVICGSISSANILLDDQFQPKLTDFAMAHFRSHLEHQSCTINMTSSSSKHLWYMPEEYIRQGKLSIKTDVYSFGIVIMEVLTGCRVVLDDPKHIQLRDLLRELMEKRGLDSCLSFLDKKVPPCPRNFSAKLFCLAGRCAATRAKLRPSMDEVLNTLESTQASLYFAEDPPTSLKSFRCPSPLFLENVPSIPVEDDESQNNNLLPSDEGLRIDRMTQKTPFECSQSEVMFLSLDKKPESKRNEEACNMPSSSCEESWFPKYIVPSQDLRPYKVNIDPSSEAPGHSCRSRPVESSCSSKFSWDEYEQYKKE

PIK4CB, sequence (Q9UBF8 whole entry, species assumed): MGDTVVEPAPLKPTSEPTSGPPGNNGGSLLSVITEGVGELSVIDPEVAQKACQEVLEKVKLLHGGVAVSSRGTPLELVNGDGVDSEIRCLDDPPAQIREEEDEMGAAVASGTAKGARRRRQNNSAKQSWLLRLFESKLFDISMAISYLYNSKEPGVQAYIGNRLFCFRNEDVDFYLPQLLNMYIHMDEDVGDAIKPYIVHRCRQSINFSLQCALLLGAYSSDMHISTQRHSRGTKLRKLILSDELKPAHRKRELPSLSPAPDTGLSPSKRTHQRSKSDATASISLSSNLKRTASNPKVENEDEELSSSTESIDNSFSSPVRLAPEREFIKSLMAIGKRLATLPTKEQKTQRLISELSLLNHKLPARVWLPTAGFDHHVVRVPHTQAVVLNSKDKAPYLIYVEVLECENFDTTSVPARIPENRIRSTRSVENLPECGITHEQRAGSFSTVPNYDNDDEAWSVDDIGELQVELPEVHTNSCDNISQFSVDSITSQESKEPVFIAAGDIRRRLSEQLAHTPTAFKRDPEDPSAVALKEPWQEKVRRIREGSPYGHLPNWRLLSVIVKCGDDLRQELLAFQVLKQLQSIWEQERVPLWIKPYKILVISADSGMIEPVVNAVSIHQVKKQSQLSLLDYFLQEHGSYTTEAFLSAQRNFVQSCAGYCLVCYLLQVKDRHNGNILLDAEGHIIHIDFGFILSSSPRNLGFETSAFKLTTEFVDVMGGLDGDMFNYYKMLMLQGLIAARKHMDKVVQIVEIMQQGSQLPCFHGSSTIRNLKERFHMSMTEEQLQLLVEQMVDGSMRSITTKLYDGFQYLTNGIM

The Kd is the constant that tells how readily two partners part at equilibrium. Lower therefore signals tighter binding. `Nc1nc2c(-c3ccccn3)nccc2[nH]1` [drawing 35, 4-(pyrid-2-yl)-1H-imidazo[4,5-c]pyridin-2-amine] returned a dissociation constant (Kd) on YSK4 of 220 nM.
As for `Nc1nc2c(-c3cnc4ccccc4c3)nccc2[nH]1` [drawing 36, 4-(quinolin-3-yl)-1H-imidazo[4,5-c]pyridin-2-amine], the values for the Kd at PIK4CB and at IRAK3 were 350 nM and 8900 nM, respectively.

The record behind these values is patent US20110152313A1 (MACQUARIE UNIVERSITY, priority 2008, published 2011).
